Laboratory results taken from US9249125B2, “Pyrazole derivatives as p38 MAP inhibitors” (RESPIVERT LIMITED, priority 2012, dated 2016).

Columns and labels:
[1] = system: Poly I:C-induced ICAM-1 expression in BEAS2B cells; assay: Poly I:C-induced ICAM-1 expression in BEAS2B cells; assay type: cell-based; conditions: Homo sapiens, BEAS-2B, read-out: Poly IC induced ICAM1 in BEAS2B IC50
Outline: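 Cell-based ELISA read at 450 nm minus 655 nm, divided by crystal violet OD595 to normalize for cell number, gave ICAM-1 levels. Readout was taken 18 hr after poly I:C (1 μg/mL, Oligofectamine) transfection of human bronchial BEAS2B cells pretreated 2 hr with test compound.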

[2] = target: Syk (Homo sapiens (Human), UniProt P43405); assay: Syk enzyme inhibition (FRET, Z-LYTE); assay type: biochemical
Outline: (§1)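 Z-LYTE FRET kinase assay: enzyme (3000 or 2000 ng/mL stock, respectively) preincubated 2 h at RT with compound (4–0.004 μg/mL stocks), then FRET peptide plus ATP (800 μM stock for c-Src, 60 μM for Syk) added for 1 h. Protease development 1 h; phosphorylation from coumarin/fluorescein emission ratio.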

[3] = system: LPS-induced IL-8 release in d-U937 cells; assay: LPS-induced IL-8 release in d-U937 cells; assay type: cell-based; conditions: Homo sapiens, dU937, read-out: LPS Induced Release of Cytokine in d-937 Cells IL-8 IC50
Outline: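 Human monocytic U937 cells were differentiated to macrophage-type cells with PMA (100 ng/mL) for 48 to 72 hr, pre-treated with test compound for 2 hr, then stimulated 4 hr with E. coli O111:B4 LPS (0.1 μg/mL). Supernatant TNFα and IL-8 were measured by sandwich ELISA; REC50 came from concentration-response curves.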

[4] = system: LPS-induced TNFα release in d-U937 cells; assay: LPS-induced TNFα release in d-U937 cells; assay type: cell-based; conditions: Homo sapiens, dU937, relative to 10 μg/mL BIRB796, read-out: LPS Induced Release of Cytokine in d-937 Cells TNFα REC50
Outline: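 First, U937 monocytes undergo PMA treatment (100 ng/mL) for 48 to 72 hr to become macrophage-type. Next, compound at final concentrations is added for 2 hr, followed by LPS at 0.1 μg/mL for 4 hr. Finally, cytokines in the supernatant are quantified by ELISA against vehicle-treated cells.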

[5] = target: cSrc (Homo sapiens (Human), UniProt P12931); assay: c-Src enzyme inhibition (FRET, Z-LYTE); assay type: biochemical
cSrc, sequence (P12931 whole entry, looked up): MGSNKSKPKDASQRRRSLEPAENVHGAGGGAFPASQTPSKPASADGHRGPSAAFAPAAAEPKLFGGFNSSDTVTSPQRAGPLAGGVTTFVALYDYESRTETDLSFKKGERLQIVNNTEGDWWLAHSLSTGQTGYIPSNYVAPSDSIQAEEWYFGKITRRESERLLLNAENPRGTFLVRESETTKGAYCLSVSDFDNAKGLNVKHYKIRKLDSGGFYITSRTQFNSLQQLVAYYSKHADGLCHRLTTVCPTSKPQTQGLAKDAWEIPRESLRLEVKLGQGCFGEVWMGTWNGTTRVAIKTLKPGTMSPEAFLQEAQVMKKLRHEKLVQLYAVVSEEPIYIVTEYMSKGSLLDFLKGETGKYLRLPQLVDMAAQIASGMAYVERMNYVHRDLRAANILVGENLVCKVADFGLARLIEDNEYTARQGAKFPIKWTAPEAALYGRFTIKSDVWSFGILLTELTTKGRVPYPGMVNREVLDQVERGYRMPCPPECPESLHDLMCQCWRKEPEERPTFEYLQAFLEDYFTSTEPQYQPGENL
Outline: as §1

[6] = target: GSK3α (Homo sapiens (Human), UniProt P49840); assay: GSK 3α enzyme inhibition (FRET, Z-LYTE); assay type: biochemical
GSK3α, sequence (P49840 whole entry): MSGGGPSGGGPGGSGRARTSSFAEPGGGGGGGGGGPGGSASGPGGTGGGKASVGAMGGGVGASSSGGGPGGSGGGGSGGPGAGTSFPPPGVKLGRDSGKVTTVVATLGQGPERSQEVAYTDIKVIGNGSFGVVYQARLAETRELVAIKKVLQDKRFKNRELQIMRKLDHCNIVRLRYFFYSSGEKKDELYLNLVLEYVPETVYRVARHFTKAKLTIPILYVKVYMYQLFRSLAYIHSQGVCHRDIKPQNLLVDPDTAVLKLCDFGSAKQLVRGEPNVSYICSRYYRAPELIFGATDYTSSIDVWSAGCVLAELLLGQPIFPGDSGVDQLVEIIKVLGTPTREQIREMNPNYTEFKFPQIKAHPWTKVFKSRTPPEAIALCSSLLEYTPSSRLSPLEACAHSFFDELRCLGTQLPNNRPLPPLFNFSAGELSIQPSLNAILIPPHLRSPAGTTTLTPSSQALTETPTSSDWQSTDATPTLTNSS
Outline: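 Phosphorylation was read as the donor (coumarin) to acceptor (fluorescein) ratio after a 1 hr protease step destroying non-phosphorylated peptide. Before this, compound (4–0.004 μg/mL stocks) sat 2 hr at RT with GSK3α (500 ng/mL stock), followed by 1 hr kinase reaction with 8 μM peptide and 40 μM ATP stocks.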

[7] = system: d-U937 cells; assay: Cell viability: MTT assay; assay type: cell-based, human; conditions: 1 μg/mL
Outline: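 MTT read-out (1 h, absorbance 550 nm) on d-U937 cells after pre-incubation with 1 or 10 μg/mL compound under two regimes: 4 h, 5% FCS, or 24 h, 10% FCS RPMI1640. Values are percent loss of viability relative to vehicle (0.5% DMSO), so increases are reported as negative.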

[8] = target: p38 MAPKα (Homo sapiens (Human), UniProt Q16539); assay: p38 MAPKα enzyme inhibition (FRET, Z-LYTE); assay type: biochemical
p38 MAPKα, sequence (Q16539 whole entry): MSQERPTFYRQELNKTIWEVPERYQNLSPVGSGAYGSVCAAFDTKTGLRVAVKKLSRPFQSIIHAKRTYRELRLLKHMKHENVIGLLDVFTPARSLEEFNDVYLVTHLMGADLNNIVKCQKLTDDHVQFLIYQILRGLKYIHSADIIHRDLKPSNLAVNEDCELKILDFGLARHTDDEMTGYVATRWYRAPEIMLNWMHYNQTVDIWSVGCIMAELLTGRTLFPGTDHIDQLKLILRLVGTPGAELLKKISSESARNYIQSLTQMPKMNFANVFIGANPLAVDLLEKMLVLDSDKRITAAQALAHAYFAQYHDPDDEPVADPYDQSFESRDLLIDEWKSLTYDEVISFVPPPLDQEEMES

Row | SMILES | IC50 [2] [nM] | IC50 [3] [nM] | EC50 [4] [nM] | IC50 [5] [nM] | IC50 [6] [nM] | IC50 [8] [nM] | IC50 [1] [nM] | MTT Assay Cell viability at time point in d-U937 cells 4 h [7] | MTT Assay Cell viability at time point in d-U937 cells 24 h [7]
1 | Cc1ccc(-n2nc(C(C)(C)C)cc2NC(=O)Nc2ccc(Oc3ccnc(Nc4ccc5c(c4)CC(=O)N5)n3)c3ccccc23)cc1 [Example 19, 1-(3-(tert-butyl)-1-(p-tolyl)-1H-pyrazol-5-yl)-3-(4-((2-((2-oxoindolin-5-yl)amino)pyrimidin-4-yl)oxy)naphthalen-1-yl)urea] | 32 | 1.9 | 1.8 | 7 | 1010 | 12 | 2.4 | −ve (−ve and +ve indicate that the value is below and above respectively, the no significant effect threshold, defined as 30% inhibition at 1 μg/mL at the time point indicated.) | −ve (−ve and +ve indicate that the value is below and above respectively, the no significant effect threshold, defined as 30% inhibition at 1 μg/mL at the time point indicated.)
2 | Cc1ccc(-n2nc(C(C)(C)C)cc2NC(=O)Nc2ccc(Oc3ccnc(Nc4cc(C)c5[nH]ncc5c4)n3)c3ccccc23)cc1 [Example 27, 1-(3-(tert-butyl)-1-(p-tolyl)-1H-pyrazol-5-yl)-3-(4-((2-((7-methyl-1H-indazol-5-yl)amino)pyrimidin-4-yl)oxy)naphthalen-1-yl)urea] | 17 | 0.7 | 2 | 11 | > 1570 | 263 | 2.4 | −ve (−ve and +ve indicate that the value is below and above respectively, the no significant effect threshold, defined as 30% inhibition at 1 μg/mL at the time point indicated.) | −ve (−ve and +ve indicate that the value is below and above respectively, the no significant effect threshold, defined as 30% inhibition at 1 μg/mL at the time point indicated.)
3 | Cc1ccc(-n2nc(C(C)(C)C)cc2NC(=O)Nc2ccc(Oc3ccnc(Nc4cccc5[nH]ccc45)n3)c3ccccc23)cc1 [Example 16] | 65 | 2.6 | 2 | 22 | > 16100 | 101 | 8.9 | −ve (−ve and +ve indicate that the value is below and above respectively, the no significant effect threshold, defined as 30% inhibition at 1 μg/mL at the time point indicated.) | −ve (−ve and +ve indicate that the value is below and above respectively, the no significant effect threshold, defined as 30% inhibition at 1 μg/mL at the time point indicated.)
4 | COc1ccc(-n2nc(C(C)(C)C)cc2NC(=O)Nc2ccc(Oc3ccnc(Nc4ccc5c(cnn5C)c4)n3)c3ccccc23)cc1 [Example 41, 1-(3-(tert-butyl)-1-(4-methoxyphenyl)-1H-pyrazol-5-yl)-3-(4-((2-((1-methyl-1H-indazol-5-yl)amino)pyrimidin-4-yl)oxy)naphthalen-1-yl)urea] | 81 | 123 | 1.6 | 16 | > 15300 | 128 | 1.9 | +ve (−ve and +ve indicate that the value is below and above respectively, the no significant effect threshold, defined as 30% inhibition at 1 μg/mL at the time point indicated.) | −ve (−ve and +ve indicate that the value is below and above respectively, the no significant effect threshold, defined as 30% inhibition at 1 μg/mL at the time point indicated.)

Now those with a lower IC50 [2], led by results:

Row | IC50 [2] [nM] | IC50 [3] [nM] | EC50 [4] [nM] | IC50 [5] [nM] | IC50 [6] [nM] | IC50 [8] [nM] | SMILES | IC50 [1] [nM] | MTT Assay Cell viability at time point in d-U937 cells 4 h [7] | MTT Assay Cell viability at time point in d-U937 cells 24 h [7]
5 | 12 | 9.7 | 2.5 | 5 | 1350 | 29 | CC(C)(C)c1cc(NC(=O)Nc2ccc(Oc3ccnc(Nc4ccc5[nH]ncc5c4)n3)c3ccccc23)n(-c2cccc(CN3CCCC3=O)c2)n1 [Example 49, 1-(4-((2-((1H-indazol-5-yl)amino)pyrimidin-4-yl)oxy)naphthalen-1-yl)-3-(3-(tert-butyl)-1-(3-((2-oxopyrrolidin-1-yl)methyl)phenyl)-1H-pyrazol-5-yl)urea] | 2.2 | −ve (−ve and +ve indicate that the value is below and above respectively, the no significant effect threshold, defined as 30% inhibition at 1 μg/mL at the time point indicated.) | −ve (−ve and +ve indicate that the value is below and above respectively, the no significant effect threshold, defined as 30% inhibition at 1 μg/mL at the time point indicated.)
6 | 15 | 25.2 | 8.5 | 6 | 848 | 39 | CC(C)(C)c1cc(NC(=O)Nc2ccc(Oc3ccnc(Nc4ccc5c(c4)OCCO5)n3)c3ccccc23)n(-c2ccc(OCCN3CCOCC3)cc2)n1 [Example 11, 1-(3-(tert-Butyl)-1-(4-(2-morpholinoethoxy)phenyl)-1H-pyrazol-5-yl)-3-(4-((2-((2,3-dihydrobenzo[b][1,4]dioxin-6-yl)amino)pyrimidin-4-yl)oxy)naphthalen-1-yl)urea] | 7.9 | −ve (−ve and +ve indicate that the value is below and above respectively, the no significant effect threshold, defined as 30% inhibition at 1 μg/mL at the time point indicated.) | −ve (−ve and +ve indicate that the value is below and above respectively, the no significant effect threshold, defined as 30% inhibition at 1 μg/mL at the time point indicated.)
7 | 5 | 3.3 | 0.9 | < 1 | 472 | 32 | COc1ccc(-n2nc(C(C)(C)C)cc2NC(=O)Nc2ccc(Oc3ccnc(Nc4ccc5[nH]nc(C(=O)N(C)C)c5c4)n3)c3ccccc23)cc1 [Example 47, 5-((4-((4-(3-(3-(tert-butyl)-1-(4-methoxyphenyl)-1H-pyrazol-5-yl)ureido)naphthalen-1-yl)oxy)pyrimidin-2-yl)amino)-N,N-dimethyl-1H-indazole-3-carboxamide] | 0.5 | −ve (−ve and +ve indicate that the value is below and above respectively, the no significant effect threshold, defined as 30% inhibition at 1 μg/mL at the time point indicated.) | −ve (−ve and +ve indicate that the value is below and above respectively, the no significant effect threshold, defined as 30% inhibition at 1 μg/mL at the time point indicated.)
8 | < 1 | 43.4 | 3.9 | < 1 | > 13500 | 7 | Cc1cc(Nc2nccc(Oc3ccc(NC(=O)Nc4cc(C(C)C)nn4-c4cccc(OCCN5CCOCC5)c4)c4ccccc34)n2)cc2cn[nH]c12 [Example 55, 1-(3-isopropyl-1-(3-(2-morpholinoethoxy)phenyl)-1H-pyrazol-5-yl)-3-(4-((2-((7-methyl-1H-indazol-5-yl)amino)pyrimidin-4-yl)oxy)naphthalen-1-yl)urea] | 50.8 | −ve (−ve and +ve indicate that the value is below and above respectively, the no significant effect threshold, defined as 30% inhibition at 1 μg/mL at the time point indicated.) | −ve (−ve and +ve indicate that the value is below and above respectively, the no significant effect threshold, defined as 30% inhibition at 1 μg/mL at the time point indicated.)
9 | 6 | 2.2 | 1.7 | 113 | 900 | 61 | Cc1ccc(-n2nc(C(C)(C)C)cc2NC(=O)Nc2ccc(Oc3ccnc(Nc4ccc5c(c4)CC(=O)N5C)n3)c3ccccc23)cc1 [Example 20, 1-(3-(tert-butyl)-1-(p-tolyl)-1H-pyrazol-5-yl)-3-(4-((2-((1-methyl-2-oxoindolin-5-yl)amino)pyrimidin-4-yl)oxy)naphthalen-1-yl)urea] | 6.3 | −ve (−ve and +ve indicate that the value is below and above respectively, the no significant effect threshold, defined as 30% inhibition at 1 μg/mL at the time point indicated.) | −ve (−ve and +ve indicate that the value is below and above respectively, the no significant effect threshold, defined as 30% inhibition at 1 μg/mL at the time point indicated.)
